# System: 485176-168-R4-J1-PDC complex spheroid growth
# Experiment: Anticancer human tumor 485176-168-R4-J1-PDC patient-derived pancreatic adenocarcinoma cell line growth inhibition [RAS]
# Settings: for viability, T/C: stronger effect = lower value
# Outline: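 Tumour cells grown as complex spheroids with HUVEC endothelial cells and mesenchymal stem cells, treated with RAS pathway inhibitor combinations. Each agent spans half-log steps from near clinical Cmax, or 10 microM where Cmax is unknown.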
# [1] = curve of first compound, second compound 0.0316 µM
# [2] = curve of first compound, second compound 0.1 µM
# [3] = curve of first compound, second compound 0.316 µM
# [4] = curve of first compound, second compound 1 µM
# [5] = curve of first compound, second compound 3.16 µM
# [6] = curve of first compound, second compound 10 µM
# [7] = second compound 0.0316 µM, first compound 0.00316 µM
# [8] = second compound 0.0316 µM, first compound 0.01 µM
# [9] = second compound 0.0316 µM, first compound 0.0316 µM
# [10] = second compound 0.0316 µM, first compound 0.1 µM
# [11] = second compound 0.0316 µM, first compound 0.316 µM
# [12] = second compound 0.0316 µM, first compound 1 µM
# [13] = second compound 0.1 µM, first compound 0.00316 µM
# [14] = second compound 0.1 µM, first compound 0.01 µM
# [15] = second compound 0.1 µM, first compound 0.0316 µM
# [16] = second compound 0.1 µM, first compound 0.1 µM
# [17] = second compound 0.1 µM, first compound 0.316 µM
# [18] = second compound 0.1 µM, first compound 1 µM
# [19] = second compound 0.316 µM, first compound 0.00316 µM
# [20] = second compound 0.316 µM, first compound 0.01 µM
# [21] = second compound 0.316 µM, first compound 0.0316 µM
# [22] = second compound 0.316 µM, first compound 0.1 µM
# [23] = second compound 0.316 µM, first compound 0.316 µM
# [24] = second compound 0.316 µM, first compound 1 µM
# [25] = second compound 1 µM, first compound 0.00316 µM
# [26] = second compound 1 µM, first compound 0.01 µM
# [27] = second compound 1 µM, first compound 0.0316 µM
# [28] = second compound 1 µM, first compound 0.1 µM
# [29] = second compound 1 µM, first compound 0.316 µM
# [30] = second compound 1 µM, first compound 1 µM
# [31] = second compound 3.16 µM, first compound 0.00316 µM
# [32] = second compound 3.16 µM, first compound 0.01 µM
# [33] = second compound 3.16 µM, first compound 0.0316 µM
# [34] = second compound 3.16 µM, first compound 0.1 µM
# [35] = second compound 3.16 µM, first compound 0.316 µM
# [36] = second compound 3.16 µM, first compound 1 µM
# [37] = second compound 10 µM, first compound 0.00316 µM
# [38] = second compound 10 µM, first compound 0.01 µM
# [39] = second compound 10 µM, first compound 0.0316 µM
# [40] = second compound 10 µM, first compound 0.1 µM
# [41] = second compound 10 µM, first compound 0.316 µM
# [42] = second compound 10 µM, first compound 1 µM
# 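Note: spheroids exposed to compounds for seven days before readout.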
# 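Throughout, for viability, T/C: luminescence viability expressed relative to DMSO vehicle wells set as 100%.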
smiles,measurement,setting,value
C[C@@H](NC(=O)c1ncnc(N)c1Cl)c1ncc(C(=O)Nc2cc(C(F)(F)F)c(Cl)cn2)s1,"viability, T/C",compound 0.0316 µM,105% [middle of 4 runs]
same,"viability, T/C",compound 0.1 µM,96% [middle of 4 runs]
same,"viability, T/C",compound 0.316 µM,88.5% [middle of 4 runs]
same,"viability, T/C",compound 1 µM,79.2% [middle of 4 runs]
same,"viability, T/C",compound 3.16 µM,79.1% [middle of 4 runs]
same,"viability, T/C",compound 10 µM,60.9% [middle of 4 runs]
same,IC50,curve of compound,> 10000 nM
C=CC(=O)N1CCN(c2nc(OCC3CCCN3C)nc3c(F)c(-c4nc(N)cc(C)c4C(F)(F)F)c(Cl)cc23)C(C)C1 (stereo unspecified) + C#Cc1c(F)ccc2cc(O)cc(-c3ncc4c(N5CC6CCC(C5)N6)nc(OCC56CCCN5CC(F)C6)nc4c3F)c12,IC50,[1],> 1000 nM
same,IC50,[2],> 1000 nM
same,IC50,[3],> 1000 nM
same,IC50,[4],> 1000 nM
same,IC50,[5],> 1000 nM
same,IC50,[6],> 1000 nM
same,"viability, T/C",[7],103%
same,"viability, T/C",[8],88.9%
same,"viability, T/C",[9],88.5%
same,"viability, T/C",[10],105%
same,"viability, T/C",[11],96.8%
same,"viability, T/C",[12],103%
same,"viability, T/C",[13],117%
same,"viability, T/C",[14],109%
same,"viability, T/C",[15],99.2%
same,"viability, T/C",[16],102%
same,"viability, T/C",[17],108%
same,"viability, T/C",[18],103%
same,"viability, T/C",[19],86.8%
same,"viability, T/C",[20],93.6%
same,"viability, T/C",[21],103%
same,"viability, T/C",[22],103%
same,"viability, T/C",[23],87.3%
same,"viability, T/C",[24],89.9%
same,"viability, T/C",[25],115%
same,"viability, T/C",[26],83.1%
same,"viability, T/C",[27],77.5%
same,"viability, T/C",[28],101%
same,"viability, T/C",[29],97.1%
same,"viability, T/C",[30],86.1%
same,"viability, T/C",[31],115%
same,"viability, T/C",[32],92.2%
same,"viability, T/C",[33],85.3%
same,"viability, T/C",[34],104%
same,"viability, T/C",[35],98.1%
same,"viability, T/C",[36],70.3%
same,"viability, T/C",[37],94.1%
same,"viability, T/C",[38],81.8%
same,"viability, T/C",[39],95.9%
same,"viability, T/C",[40],94.6%
same,"viability, T/C",[41],95.2%
same,"viability, T/C",[42],94.8%
CCN1CCN(Cc2ccc(Nc3ncc(F)c(-c4cc(F)c5nc(C)n(C(C)C)c5c4)n3)nc2)CC1 + C#Cc1c(F)ccc2cc(O)cc(-c3ncc4c(N5CC6CCC(C5)N6)nc(OCC56CCCN5CC(F)C6)nc4c3F)c12,IC50,[1],> 1000 nM
same,IC50,[2],> 1000 nM
same,IC50,[3],> 1000 nM
same,IC50,[4],> 1000 nM
same,IC50,[5],> 1000 nM
same,IC50,[6],> 1000 nM
same,"viability, T/C",[7],91.1%
same,"viability, T/C",[8],83.4%
same,"viability, T/C",[9],101%
same,"viability, T/C",[10],100%
same,"viability, T/C",[11],73.9%
same,"viability, T/C",[12],64.9%
same,"viability, T/C",[13],117%
same,"viability, T/C",[14],109%
same,"viability, T/C",[15],79.7%
same,"viability, T/C",[16],85.1%
same,"viability, T/C",[17],78.8%
same,"viability, T/C",[18],55.4%
same,"viability, T/C",[19],97.1%
same,"viability, T/C",[20],95.6%
same,"viability, T/C",[21],90.7%
same,"viability, T/C",[22],104%
same,"viability, T/C",[23],84.3%
same,"viability, T/C",[24],63.9%
same,"viability, T/C",[25],96.8%
same,"viability, T/C",[26],101%
same,"viability, T/C",[27],101%
same,"viability, T/C",[28],86.8%
same,"viability, T/C",[29],72%
same,"viability, T/C",[30],70.1%
same,"viability, T/C",[31],110%
same,"viability, T/C",[32],92.8%
same,"viability, T/C",[33],81.5%
same,"viability, T/C",[34],92.8%
same,"viability, T/C",[35],77.5%
same,"viability, T/C",[36],61.3%
same,"viability, T/C",[37],103%
same,"viability, T/C",[38],95.5%
same,"viability, T/C",[39],84.4%
same,"viability, T/C",[40],79.6%
same,"viability, T/C",[41],96.6%
same,"viability, T/C",[42],61.6%

# From PubChem BioAssay AID2060906 (Molecular Pharmacology Branch, DTP, NCI, 2025)
